Data published in patent publication US9982005B2, “Macrolides and methods of their preparation and use” (President and Fellows of Harvard College, priority 2013, dated 2018).
Values after ≈ are worked out from the molar mass of the structure shown. Where two headings read alike, the source gives them in different places.

Columns and labels:
Format in all cases: cell-based
[1] = tested on: Spn 106 S. pneumonia ATCC49619; assay: broth dilution MIC, S. pneumoniae Spn 106; conditions: Streptococcus pneumoniae
Source text: (§1) We have collected MIC data for a total of 50 novel macrolides that this platform has produced against over 21 unique strains of B. subtilis, E. coli, S. aureus, S. pneumoniae, and H. influenzae, including several multidrug-resistant strains, with a special focus on macrolide resistant mechanisms (vide supra). Azithromycin was included as a control macrolide. CLSI standard procedures for broth dilution MIC determination were used. […] These genotypes can be constitutive or inducible. The finding that C4-epi (unnatural) isomers of the “azaketolide” macrolide class have enhanced activities relative to C4 natural isomers is very exciting.

[2] = tested on: SA101 S. aureus ATCC29213; assay: broth dilution MIC, S. aureus SA101; conditions: Staphylococcus aureus, ATCC29213, SA101 S. aureus ATCC29213; read-out: MIC
In short: (§2)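 Standard CLSI broth dilution method used for MIC determination. Control: azithromycin.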

[3] = tested on: Spn1533 S. pneumoniae ermB positive mefA positive; assay: broth dilution MIC, S. pneumoniae Spn1533; conditions: Streptococcus pneumoniae
Source text: as §1

[4] = tested on: SA1708 S. aureus ermA positive msrA negative; assay: broth dilution MIC, S. aureus SA1708; conditions: Staphylococcus aureus
Source text: as §1

HI281 H. influenzae = assay: broth dilution MIC, H. influenzae HI281; conditions: Haemophilus influenzae
Source text: as §1

[5] = tested on: SA183 S. aureus ermA positive msrA unknown; assay: broth dilution MIC, S. aureus SA183; conditions: Staphylococcus aureus
Source text: as §1

[6] = tested on: SA1707 S. aureus ermA negative msrA positive; assay: broth dilution MIC, S. aureus SA1707; conditions: Staphylococcus aureus
Source text: as §1

[7] = tested on: SA557 S. aureus ermA unknown msrA positive; assay: broth dilution MIC, S. aureus SA557; conditions: Staphylococcus aureus; SA557 S. aureus ermA unknown msrA positive; read-out: MIC
Source text: as §1

[8] = tested on: Spn1537 S. pneumoniae ermB positive mefA positive; assay: broth dilution MIC, S. pneumoniae Spn1537; conditions: Streptococcus pneumoniae
Source text: as §1

[9] = tested on: Spn1509 S. pneumoniae ermB positive mefA negative; assay: broth dilution MIC, S. pneumoniae Spn1509; conditions: Streptococcus pneumoniae; Spn1509 S. pneumoniae ermB positive mefA negative; read-out: MIC
Source text: as §1

[10] = tested on: Spn1427 S. pneumoniae ermB positive mefA negative; assay: broth dilution MIC, S. pneumoniae Spn1427; conditions: Streptococcus pneumoniae
Source text: as §1

[11] = tested on: HI175 H. influenzae ATCC49247; assay: broth dilution MIC, H. influenzae HI175; conditions: Haemophilus influenzae
Source text: as §1

[12] = tested on: SA506 S. aureus ermA positive msrA unknown; assay: broth dilution MIC, S. aureus SA506; conditions: Staphylococcus aureus
Source text: as §1

[13] = tested on: SA418 S. aureus ermA negative msrA positive; assay: broth dilution MIC, S. aureus SA418; conditions: Staphylococcus aureus
Source text: as §1

[14] = tested on: Spn160 S. pneumoniae ermB unknown mefA positive; assay: broth dilution MIC, S. pneumoniae Spn160; conditions: Streptococcus pneumoniae; Spn160 S. pneumoniae ermB unknown mefA positive; read-out: MIC
Source text: as §1

S. aureus strains = assay: MIC against S. aureus strains (Table M7); conditions: for MIC: Staphylococcus aureus
In short: as §2

S. pneumoniae strains = assay: MIC against S. pneumoniae strains (Tables M7, M8); conditions: for MIC: Streptococcus pneumoniae
Source text: CLSI standard procedures for broth dilution MIC determination were used. […] These genotypes can be constitutive or inducible.

A. baumannii strains = assay: MIC against A. baumannii strains (Table M8); conditions: Acinetobacter baumannii, BAA747, A. baumannii BAA747-1
K. pneumoniae strains = assay: MIC against K. pneumoniae strains (Table M8); conditions: Klebsiella pneumoniae, K. pneumoniae 10031
H. influenzae strains = assay: MIC against H. influenzae strains (Table M8); conditions: Haemophilus influenzae
In short: as §2

E. coli strains = assay: MIC against E. coli strains (Table M7); conditions: Escherichia coli, ATCC25922, E. coli ATCC 25922
In short: as §2

E. faecalis strains = assay: MIC against E. faecalis strains (Table M8); conditions: Enterococcus faecalis, E. faecalis 29212
[15] = Spn 106 S. pneumonia ATCC49619, read-out: MIC
[16] = ATCC29213, S. aureus ATCC 29213, read-out: MIC S. aureus (ATCC 29213)
[17] = S. aureus 506, read-out: MIC S. aureus (506)
[18] = S. aureus 1708, read-out: MIC S. aureus (1708)
[19] = USA300, S. aureus USA300, read-out: MIC S. aureus (USA300)
[20] = S. pneumoniae 160, read-out: MIC S. pneumonae (160)
[21] = S. pneumoniae 1509, read-out: MIC S. pneumoniae (1509)
[22] = S. pneumoniae 1533, read-out: MIC S. pneumoniae (1533)
[23] = S. pneumoniae 1537, read-out: MIC S. pneumoniae (1537)
[24] = S. pneumoniae 49619, read-out: MIC S. pneumoniae (49619)
[25] = H. influenzae 49247, read-out: MIC H. influenzae (49247)
[26] = H. influenzae 49766, read-out: MIC H. influenzae (49766)

SMILES | MIC [1, 15] | MIC [2] | MIC [3] | MIC [4] | MIC (HI281 H. influenzae) | MIC [5] | MIC [6] | MIC [7] | MIC [8] | MIC [9] | MIC [10] | MIC [11] | MIC [12] | MIC [13] | MIC [14] | MIC (S. aureus strains; [16]) | MIC (S. aureus strains; [17]) | MIC (S. aureus strains; [18]) | MIC (S. aureus strains; [19]) | MIC (S. pneumoniae strains; [20]) | further results
CC[C@H]1OC(=O)[C@H](C)C(=O)C[C@@H](O[C@@H]2OC(C)CC(N(C)C)C2O)[C@](C)(OC)C[C@@H](C)C(=O)N[C@H](C)[C@H]2N(CCCCn3cc(-c4ccccn4)nn3)C(=O)O[C@]12C (stereo partly drawn) [FSM-20739] | 32 µg/mL (≈ 39.3 µM) | > 32 µg/mL | > 32 µg/mL | > 32 µg/mL | 32 µg/mL (≈ 39.3 µM) | > 32 µg/mL | > 32 µg/mL | > 32 µg/mL | > 32 µg/mL | > 32 µg/mL | > 32 µg/mL | > 32 µg/mL | > 32 µg/mL | > 32 µg/mL | > 32 µg/mL |  |  |  |  |  | 
CC[C@H]1OC(=O)C(C)(F)C(=O)[C@H](C)[C@@H](O[C@@H]2OC(C)CC(N(C)C)C2O)[C@](C)(OC)C[C@@H](C)CN[C@H](C)[C@H]2N(CCCCn3cc(-c4cccc(N)c4)nn3)C(=O)O[C@]12C (stereo partly drawn) [FSM-20795] | ≤ 0.0156 µg/mL | 0.25 to 0.5 µg/mL (≈ 0.295 to 0.591 µM) | 16 µg/mL (≈ 18.9 µM) | 0.5 µg/mL (≈ 0.591 µM) | 4 to 8 µg/mL (≈ 4.73 to 9.46 µM) | > 32 µg/mL | 0.5 to 1 µg/mL (≈ 0.591 to 1.18 µM) | 0.25 to 0.5 µg/mL (≈ 0.295 to 0.591 µM) | 32 µg/mL (≈ 37.8 µM) | 0.125 to 0.25 µg/mL (≈ 0.148 to 0.295 µM) | 1 to 2 µg/mL (≈ 1.18 to 2.36 µM) | 1 to 2 µg/mL (≈ 1.18 to 2.36 µM) | > 32 µg/mL | 0.5 to 1 µg/mL (≈ 0.591 to 1.18 µM) | 0.0312 µg/mL (≈ 0.0369 µM) | 0.5 µg/mL (≈ 0.591 µM) | > 32 µg/mL | 0.25 µg/mL (≈ 0.295 µM) | 1 µg/mL (≈ 1.18 µM) | ≤ 0.0625 µg/mL | MIC S. aureus (1708) (S. aureus strains; S. aureus 1708): 0.5 µg/mL (≈ 0.591 µM); MIC (S. aureus strains; S. aureus 183, read-out: MIC S. aureus (183)): > 32 µg/mL; MIC S. pneumoniae (1509) (S. pneumoniae strains; S. pneumoniae 1509): 1 µg/mL (≈ 1.18 µM); MIC (S. pneumoniae strains; [21]): 0.5 µg/mL (≈ 0.591 µM); MIC (S. pneumoniae strains; [22]): > 32 µg/mL; MIC (S. pneumoniae strains; [23]): > 32 µg/mL; MIC (S. pneumoniae strains; [24]): ≤ 0.0625 µg/mL; MIC (A. baumannii strains): 16 µg/mL (≈ 18.9 µM); MIC (K. pneumoniae strains): 2 µg/mL (≈ 2.36 µM); MIC (H. influenzae strains; [25]): 0.5 µg/mL (≈ 0.591 µM); MIC (H. influenzae strains; [26]): 4 µg/mL (≈ 4.73 µM); MIC (E. coli strains): 4 µg/mL (≈ 4.73 µM); MIC (E. faecalis strains): 0.125 µg/mL (≈ 0.148 µM)
CC[C@H]1OC(=O)C(C)(F)C(=O)[C@H](C)[C@@H](O[C@@H]2OC(C)CC(N(C)C)C2O)[C@](C)(OC)C[C@@H](C)CN(C)[C@H](C)[C@H]2N(CCCCn3cc(-c4cccc(N)c4)nn3)C(=O)O[C@]12C (stereo partly drawn) [FSM-20797] | ≤ 0.0156 µg/mL | 4 µg/mL (≈ 4.65 µM) | > 32 µg/mL | 8 µg/mL (≈ 9.3 µM) | 32 µg/mL (≈ 37.2 µM) | > 32 µg/mL | 8 µg/mL (≈ 9.3 µM) | 8 µg/mL (≈ 9.3 µM) | > 32 µg/mL | 4 µg/mL (≈ 4.65 µM) | 32 µg/mL (≈ 37.2 µM) | 8 µg/mL (≈ 9.3 µM) | > 32 µg/mL | 4 µg/mL (≈ 4.65 µM) | 0.125 µg/mL (≈ 0.145 µM) | 8 µg/mL (≈ 9.3 µM) | > 32 µg/mL | 8 µg/mL (≈ 9.3 µM) | 8 µg/mL (≈ 9.3 µM) | 0.25 µg/mL (≈ 0.291 µM) | MIC (S. pneumoniae strains; [21]): 16 µg/mL (≈ 18.6 µM); MIC (S. pneumoniae strains; [22]): > 32 µg/mL; MIC (S. pneumoniae strains; [23]): > 32 µg/mL; MIC (S. pneumoniae strains; [24]): 0.5 µg/mL (≈ 0.581 µM); MIC (A. baumannii strains): > 32 µg/mL; MIC (K. pneumoniae strains): 8 µg/mL (≈ 9.3 µM); MIC (H. influenzae strains; [25]): 4 µg/mL (≈ 4.65 µM); MIC (H. influenzae strains; [26]): 16 µg/mL (≈ 18.6 µM); MIC (E. coli strains): 32 µg/mL (≈ 37.2 µM); MIC (E. faecalis strains): 1 µg/mL (≈ 1.16 µM)
CC[C@H]1OC(=O)C(C)C(=O)[C@@H](C)[C@@H](O[C@@H]2OC(C)CC(N(C)C)C2O)[C@](C)(OC)C[C@@H](C)CN[C@H](C)[C@H]2N(CCCCn3cc(-c4cccc(N)c4)nn3)C(=O)O[C@]12C (stereo partly drawn) [FSM-20789] |  | 2 µg/mL (≈ 2.42 µM) | > 32 µg/mL | 2 µg/mL (≈ 2.42 µM) | 8 µg/mL (≈ 9.66 µM) | > 32 µg/mL | 4 µg/mL (≈ 4.83 µM) | 2 µg/mL (≈ 2.42 µM) | > 32 µg/mL | 1 µg/mL (≈ 1.21 µM) | 8 µg/mL (≈ 9.66 µM) | 4 µg/mL (≈ 4.83 µM) | > 32 µg/mL | 4 µg/mL (≈ 4.83 µM) | 0.25 µg/mL (≈ 0.302 µM) | 2 µg/mL (≈ 2.42 µM) | > 32 µg/mL | 2 µg/mL (≈ 2.42 µM) | 4 µg/mL (≈ 4.83 µM) | 0.5 µg/mL (≈ 0.604 µM) | MIC ([1]; ATCC49619): 0.0625 µg/mL (≈ 0.0755 µM); MIC (S. pneumoniae strains; [21]): 4 µg/mL (≈ 4.83 µM); MIC (S. pneumoniae strains; [22]): > 32 µg/mL; MIC (S. pneumoniae strains; [23]): > 32 µg/mL; MIC (S. pneumoniae strains; [24]): 0.125 µg/mL (≈ 0.151 µM); MIC (A. baumannii strains): 32 µg/mL (≈ 38.6 µM); MIC (K. pneumoniae strains): 4 µg/mL (≈ 4.83 µM); MIC (H. influenzae strains; [25]): 2 µg/mL (≈ 2.42 µM); MIC (H. influenzae strains; [26]): 8 µg/mL (≈ 9.66 µM); MIC (E. coli strains): 16 µg/mL (≈ 19.3 µM); MIC (E. faecalis strains): 0.5 µg/mL (≈ 0.604 µM)
